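Method: 48-hour compound exposure of cells in 96-well plates, five concentrations, linear interpolation of endpoints. Here, GI50 denotes the concentration required for 50% inhibition of growth. TGI is the concentration that stops growth completely.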
What was measured:
Test in all cases: growth of human tumour cells (NCI), 48 h
CAKI-1 renal = tested on: CAKI-1 renal
DU-145 prostate = tested on: DU-145 prostate
HCT-15 colon = tested on: HCT-15 colon
HL-60(TB) leukemia = tested on: HL-60(TB) leukemia
HOP-92 NSCLC = tested on: HOP-92 NSCLC
IGROV1 ovarian = tested on: IGROV1 ovarian
NCI/ADR-RES ovarian = tested on: NCI/ADR-RES ovarian
SF-268 CNS = tested on: SF-268 CNS
SK-MEL-2 melanoma = tested on: SK-MEL-2 melanoma
UO-31 renal = tested on: UO-31 renal
786-0 renal = tested on: 786-0 renal
A549 NSCLC = tested on: A549 NSCLC
ACHN renal = tested on: ACHN renal
BT-549 breast = tested on: BT-549 breast
CCRF-CEM leukemia = tested on: CCRF-CEM leukemia
COLO 205 colon = tested on: COLO 205 colon
EKVX NSCLC = tested on: EKVX NSCLC
HCC-2998 colon = tested on: HCC-2998 colon
HCT-116 colon = tested on: HCT-116 colon
HOP-62 NSCLC = tested on: HOP-62 NSCLC
HS 578T breast = tested on: HS 578T breast
HT29 colon = tested on: HT29 colon
K-562 leukemia = tested on: K-562 leukemia
KM12 colon = tested on: KM12 colon
LOX IMVI melanoma = tested on: LOX IMVI melanoma
M14 melanoma = tested on: M14 melanoma
MALME-3M melanoma = tested on: MALME-3M melanoma
MCF7 breast = tested on: MCF7 breast
MDA-MB-231 breast = tested on: MDA-MB-231 breast
MDA-MB-435 = tested on: MDA-MB-435
MOLT-4 leukemia = tested on: MOLT-4 leukemia
NCI-H226 lung = tested on: NCI-H226 lung
NCI-H23 lung = tested on: NCI-H23 lung
NCI-H460 lung = tested on: NCI-H460 lung
NCI-H522 lung = tested on: NCI-H522 lung
OVCAR-3 ovarian = tested on: OVCAR-3 ovarian
OVCAR-4 ovarian = tested on: OVCAR-4 ovarian
OVCAR-5 ovarian = tested on: OVCAR-5 ovarian
OVCAR-8 ovarian = tested on: OVCAR-8 ovarian
PC-3 prostate = tested on: PC-3 prostate
RPMI-8226 leukemia = tested on: RPMI-8226 leukemia
RXF 393 renal = tested on: RXF 393 renal
SF-295 CNS = tested on: SF-295 CNS
SF-539 CNS = tested on: SF-539 CNS
SK-MEL-28 melanoma = tested on: SK-MEL-28 melanoma
SK-MEL-5 melanoma = tested on: SK-MEL-5 melanoma
SK-OV-3 ovarian = tested on: SK-OV-3 ovarian
SN12C renal = tested on: SN12C renal
SNB-19 CNS = tested on: SNB-19 CNS
SNB-75 CNS = tested on: SNB-75 CNS
SW-620 colon = tested on: SW-620 colon
T-47D breast = tested on: T-47D breast
TK-10 renal = tested on: TK-10 renal
U251 CNS = tested on: U251 CNS
UACC-257 melanoma = tested on: UACC-257 melanoma
UACC-62 melanoma = tested on: UACC-62 melanoma

SMILES: CCCCCCCCCCC(C[N+](C)(C)C/C=C/c1ccccc1)C(O)c1ccccc1 (stereo not drawn)
- GI50 (CAKI-1 renal): 12.2 µM
- TGI (CAKI-1 renal): 34.1 µM
- GI50 (DU-145 prostate): 1.76 µM
- TGI (DU-145 prostate): 3.37 µM
- GI50 (HCT-15 colon): 2.29 µM
- TGI (HCT-15 colon): 6.31 µM
- GI50 (HL-60(TB) leukemia): 1.1 µM
- TGI (HL-60(TB) leukemia): 2.63 µM
- GI50 (HOP-92 NSCLC): 0.435 µM
- TGI (HOP-92 NSCLC): 2.08 µM
- GI50 (IGROV1 ovarian): 0.999 µM
- TGI (IGROV1 ovarian): 2.54 µM
- GI50 (NCI/ADR-RES ovarian): 7.5 µM
- TGI (NCI/ADR-RES ovarian): 34.6 µM
- GI50 (SF-268 CNS): 1.47 µM
- TGI (SF-268 CNS): 3.2 µM
- GI50 (SK-MEL-2 melanoma): 1.75 µM
- TGI (SK-MEL-2 melanoma): 3.24 µM
- GI50 (UO-31 renal): 2.09 µM
- TGI (UO-31 renal): 4.51 µM

SMILES: CC(=O)C1CC2(c3ccc(C)cc3)C(c3ccc(C)cc3)=C(c3ccc(C)cc3)C1(c1ccc(C)cc1)S2=O (stereo not drawn)
- GI50 (786-0 renal): > 100 µM
- TGI (786-0 renal): > 100 µM
- GI50 (A549 NSCLC): > 100 µM
- TGI (A549 NSCLC): > 100 µM
- GI50 (ACHN renal): > 100 µM
- TGI (ACHN renal): > 100 µM
- GI50 (BT-549 breast): > 100 µM
- TGI (BT-549 breast): > 100 µM
- GI50 (CAKI-1 renal): > 100 µM
- TGI (CAKI-1 renal): > 100 µM
- GI50 (CCRF-CEM leukemia): > 100 µM
- TGI (CCRF-CEM leukemia): > 100 µM
- GI50 (COLO 205 colon): > 100 µM
- TGI (COLO 205 colon): > 100 µM
- GI50 (DU-145 prostate): > 100 µM
- TGI (DU-145 prostate): > 100 µM
- GI50 (EKVX NSCLC): > 100 µM
- TGI (EKVX NSCLC): > 100 µM
- GI50 (HCC-2998 colon): > 100 µM
- TGI (HCC-2998 colon): > 100 µM
- GI50 (HCT-116 colon): > 100 µM
- TGI (HCT-116 colon): > 100 µM
- GI50 (HCT-15 colon): > 100 µM
- TGI (HCT-15 colon): > 100 µM
- GI50 (HOP-62 NSCLC): > 100 µM
- TGI (HOP-62 NSCLC): > 100 µM
- GI50 (HS 578T breast): > 100 µM
- TGI (HS 578T breast): > 100 µM
- GI50 (HT29 colon): > 100 µM
- TGI (HT29 colon): > 100 µM
- GI50 (IGROV1 ovarian): 70.2 µM
- TGI (IGROV1 ovarian): > 100 µM
- GI50 (K-562 leukemia): > 100 µM
- TGI (K-562 leukemia): > 100 µM
- GI50 (KM12 colon): > 100 µM
- TGI (KM12 colon): > 100 µM
- GI50 (LOX IMVI melanoma): > 100 µM
- TGI (LOX IMVI melanoma): > 100 µM
- GI50 (M14 melanoma): > 100 µM
- TGI (M14 melanoma): > 100 µM
- GI50 (MALME-3M melanoma): > 100 µM
- TGI (MALME-3M melanoma): > 100 µM
- GI50 (MCF7 breast): > 100 µM
- TGI (MCF7 breast): > 100 µM
- GI50 (MDA-MB-231 breast): > 100 µM
- TGI (MDA-MB-231 breast): > 100 µM
- GI50 (MDA-MB-435): > 100 µM
- TGI (MDA-MB-435): > 100 µM
- GI50 (MOLT-4 leukemia): > 100 µM
- TGI (MOLT-4 leukemia): > 100 µM
- GI50 (NCI-H226 lung): > 100 µM
- TGI (NCI-H226 lung): > 100 µM
- GI50 (NCI-H23 lung): > 100 µM
- TGI (NCI-H23 lung): > 100 µM
- GI50 (NCI-H460 lung): > 100 µM
- TGI (NCI-H460 lung): > 100 µM
- GI50 (NCI-H522 lung): > 100 µM
- TGI (NCI-H522 lung): > 100 µM
- GI50 (NCI/ADR-RES ovarian): > 100 µM
- TGI (NCI/ADR-RES ovarian): > 100 µM
- GI50 (OVCAR-3 ovarian): > 100 µM
- TGI (OVCAR-3 ovarian): > 100 µM
- GI50 (OVCAR-4 ovarian): 79.9 µM
- TGI (OVCAR-4 ovarian): > 100 µM
- GI50 (OVCAR-5 ovarian): > 100 µM
- TGI (OVCAR-5 ovarian): > 100 µM
- GI50 (OVCAR-8 ovarian): 88.2 µM
- TGI (OVCAR-8 ovarian): > 100 µM
- GI50 (PC-3 prostate): > 100 µM
- TGI (PC-3 prostate): > 100 µM
- GI50 (RPMI-8226 leukemia): 31.1 µM
- TGI (RPMI-8226 leukemia): > 100 µM
- GI50 (RXF 393 renal): > 100 µM
- TGI (RXF 393 renal): > 100 µM
- GI50 (SF-268 CNS): > 100 µM
- TGI (SF-268 CNS): > 100 µM
- GI50 (SF-295 CNS): 85 µM
- TGI (SF-295 CNS): > 100 µM
- GI50 (SF-539 CNS): > 100 µM
- TGI (SF-539 CNS): > 100 µM
- GI50 (SK-MEL-2 melanoma): > 100 µM
- TGI (SK-MEL-2 melanoma): > 100 µM
- GI50 (SK-MEL-28 melanoma): > 100 µM
- TGI (SK-MEL-28 melanoma): > 100 µM
- GI50 (SK-MEL-5 melanoma): > 100 µM
- TGI (SK-MEL-5 melanoma): > 100 µM
- GI50 (SK-OV-3 ovarian): > 100 µM
- TGI (SK-OV-3 ovarian): > 100 µM
- GI50 (SN12C renal): > 100 µM
- TGI (SN12C renal): > 100 µM
- GI50 (SNB-19 CNS): > 100 µM
- TGI (SNB-19 CNS): > 100 µM
- GI50 (SNB-75 CNS): > 100 µM
- TGI (SNB-75 CNS): > 100 µM
- GI50 (SW-620 colon): > 100 µM
- TGI (SW-620 colon): > 100 µM
- GI50 (T-47D breast): 68 µM
- TGI (T-47D breast): > 100 µM
- GI50 (TK-10 renal): > 100 µM
- TGI (TK-10 renal): > 100 µM
- GI50 (U251 CNS): > 100 µM
- TGI (U251 CNS): > 100 µM
- GI50 (UACC-257 melanoma): > 100 µM
- TGI (UACC-257 melanoma): > 100 µM
- GI50 (UACC-62 melanoma): > 100 µM
- TGI (UACC-62 melanoma): > 100 µM
- GI50 (UO-31 renal): > 100 µM
- TGI (UO-31 renal): > 100 µM

Source: PubChem BioAssay (NCI)
